Reference: patent publication US10287267B2, “Isoquinolin-3-yl carboxamides and preparation and use thereof” (Samumed, LLC, priority 2016, dated 2019)
Read-outs that look alike come from different tables or passages of the source.

Key:
[1] = molecular target: recombinant DYRK1A kinase (Homo sapiens (Human), UniProt Q13627); experiment: DYRK1A kinase assay (Ser/Thr 18 peptide Z-lyte FRET); format: biochemical; conditions: 30 μM ATP, 1 h room temperature;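 further: Read-out is the coumarin to fluorescein emission ratio, referenced to unphosphorylated (0%) and phosphorylated (100%) Ser/Thr 18 peptide controls, values from dose-response curves by non-linear regression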
[2] = test system: Tau phosphorylation at Ser396 (pSer396); experiment: Tau phosphorylation assay (pSer396 ELISA / western blot) in SH-SY5Y cells; format: cell-based, human; conditions: Homo sapiens, read-out: pSer396 Tau EC50;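 further: EC50 for reduction of Tau pSer396 in lysed cells, measured by colorimetric ELISA or chemiluminescent western blot, both using the same pSer396 antibody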
[3] = test system: SW480 colon carcinoma cells; experiment: Cell viability assay (CellTiter-Glo); format: cell-based, human; conditions: Homo sapiens; for EC50: 96 h, SW480 cells, CellTiter-Glo, four days incubation; for inhibition at 10 µM: SW480, read-out: percent inhibition at 10 μM
recombinant GSK3β kinase = recombinant GSK3β kinase (Homo sapiens (Human), UniProt P49841); experiment: GSK3β kinase assay (Ser/Thr 09 peptide Z-lyte FRET); format: biochemical; conditions: 46 μM ATP, 1 h room temperature;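 further: kinase activity read as coumarin to fluorescein emission ratio, 11-point threefold dilutions from 10 µM to 0.0003 µM in duplicate, unphosphorylated and phosphorylated peptide as 0% and 100% controls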
[4] = test system: α-smooth muscle actin (αSMA) positive LL29 cells; experiment: Inhibition of fibrotic process: αSMA in TGF-β1 treated primary human fibroblasts from IPF patients; format: cell-based; conditions: Homo sapiens, Fibroblast; for EC50: 96 h, Table 8, LL29 fibroblasts from IPF patients, TGF-β1 20 ng/mL, 4 days, dose-response 10 μM to 0.94 nM; for inhibition at 10 µM: read-out: percent value in parentheses beside EC50 >10 μM;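 on all read-outs here: controls were TGF-β1 stimulated wells with DMSO vehicle (positive) and cells given DMSO alone (negative), cultured in F12 medium with 1% fetal bovine serum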
[5] = test system: Wnt pathway (Sp5-Luc reporter, TCF/LEF binding sites) in SW480 colon carcinoma cells; experiment: Screening assay for Wnt activity: Sp5-Luc reporter gene assay; format: cell-based, human; conditions: Homo sapiens; for EC50: Sp5-Luc reporter, SW480 cells, 36 to 48 hours; for inhibition at 10 µM: SW480, read-out: percent inhibition at 10 μM;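 on all read-outs here: firefly luciferase luminescence read in stably transduced SW480 cells carrying the Sp5 promoter reporter with eight TCF/LEF sites, compounds given in 0.1% DMSO final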
Procedure: The screening assay for Wnt activity is described as follows.
Following incubation, 15 μl of BriteLite Plus luminescence reagent (Perkin Elmer) was added to each well of the 384-well assay plates. The plates were placed on an orbital shaker for 2 min and then luminescence was quantified using the Envision (Perkin Elmer) plate reader.

IL-6 = IL-6 inhibition in LPS-stimulated human peripheral blood mononuclear cells (HTRF); format: cell-based; conditions: Homo sapiens, PBMC; for EC50: Table 9, huPBMCs, LPS 50 ng/mL, 22 hours, dose-response starting from 10 μM; for inhibition at 10 µM: read-out: percent value in parentheses beside EC50 >10 μM;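 on all read-outs here: IL-6 detected by HTRF with an XL665- and Cryptate-labelled anti-IL-6 antibody pair, samples run in duplicate, EC50 obtained from a four-parameter Levenberg-Marquardt curve fit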
Procedure: After 22 hour incubation, a mixture of anti-IL6 XL665 and anti-IL-6 Cryptate diluted in reconstitution buffer (Catalog #62IL6PEC, Cisbio Inc., Bedford, Mass.) was added to each well. […] All samples were processed in duplicate. […] EC50 was determined using software generated by Dotmatics Limited (Windhill Bishops Stortford Herts, UK) using the Levenberg-Marquardt 4 parameter fitting procedure with finite different gradients.

[6] = SH-SY5Y cells, overnight (16-18 h) exposure

recombinant GSK3β kinase, sequence (P49841 whole entry): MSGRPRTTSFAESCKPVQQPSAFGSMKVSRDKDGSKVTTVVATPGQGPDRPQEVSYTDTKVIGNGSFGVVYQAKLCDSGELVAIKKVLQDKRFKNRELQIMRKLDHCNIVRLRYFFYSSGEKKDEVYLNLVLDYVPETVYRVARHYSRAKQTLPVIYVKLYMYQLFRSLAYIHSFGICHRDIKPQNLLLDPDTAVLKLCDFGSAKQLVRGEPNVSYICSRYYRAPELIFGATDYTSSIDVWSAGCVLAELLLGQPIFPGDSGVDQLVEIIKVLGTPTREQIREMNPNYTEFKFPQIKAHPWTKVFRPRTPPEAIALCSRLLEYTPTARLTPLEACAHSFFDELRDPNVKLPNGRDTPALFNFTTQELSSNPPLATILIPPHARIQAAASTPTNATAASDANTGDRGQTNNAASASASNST

| SMILES | EC50 [1] [nM] | EC50 [2, 6] [nM] | EC50 [3] [nM] | EC50 (recombinant GSK3β kinase) [nM] | EC50 [4] [nM] | EC50 [5] [nM] | EC50 (IL-6) [nM] | inhibition at 10 µM [4] [%] | inhibition at 10 µM [3] [%] | inhibition at 10 µM [5] [%] | EC50 ([2]; SH-SY5Y) [nM] | inhibition at 10 µM (IL-6) [%] |
| --- | --- | --- | --- | --- | --- | --- | --- | --- | --- | --- | --- | --- |
| O=C(Nc1cc2cc(-c3cnn(C4CC4)c3)ccc2cn1)C1CCN(CCC(F)(F)F)CC1 [Compound 297, N-(6-(1-Cyclopropyl-1H-pyrazol-4-yl)isoquinolin-3-yl)-1-(3,3,3-trifluoropropyl)piperidine-4-carboxamide] | 23.7 | 1420 | 5720 | 155 | 447 | 4810 | 1170 |  |  |  |  |  |
| Cn1ncc(-c2ccc3cnc(NC(=O)C4CCN(C(=O)c5ccccc5)CC4)cc3c2)c1CN1CCCCC1 [Compound 831, 1-Benzoyl-N-(6-(1-methyl-5-(piperidin-1-ylmethyl)-1H-pyrazol-4-yl)isoquinolin-3-yl)piperidine-4-carboxamide] | 3.2 | 189 | 911 | 10 | 244 | 706 | 812 |  |  |  |  |  |
| C[C@@H](F)CN1CCC(C(=O)Nc2cc3cc(-c4cnn(C)c4)ccc3cn2)CC1 [Compound 313, (R)-1-(2-Fluoropropyl)-N-(6-(1-methyl-1H-pyrazol-4-yl)isoquinolin-3-yl) piperidine-4-carboxamide] | 2.5 | 330 | 711 | 39 | 105 | 577 | 1010 |  |  |  |  |  |
| Cn1cc(-c2ccc3cnc(NC(=O)[C@H]4CC[C@H](N(C)C)CC4)cc3c2)cn1 [Compound 327, trans-4-(Dimethylamino)-N-(6-(1-methyl-1H-pyrazol-4-yl)isoquinolin-3-yl)cyclohexane-1-carboxamide] | 1.7 | 411 | 1580 | 66 | 58 | 258 | 947 |  |  |  |  |  |
| CN1CC2(CC(C(=O)Nc3cc4cc(-c5cncn5C)ccc4cn3)C2)C1 [Compound 523, 2-Methyl-N-(6-(1-methyl-1H-imidazol-5-yl)isoquinolin-3-yl)-2-azaspiro[3.3] heptane-6-carboxamide] | 2.9 | 2200 | 447 | 42 | > 10000 | 683 | 201 | 32.6 |  |  |  |  |
| Cn1cncc1-c1ccc2cnc(NC(=O)C3(F)CCCCC3)cc2c1 [Compound 527, 1-Fluoro-N-(6-(1-methyl-1H-imidazol-5-yl)isoquinolin-3-yl)cyclohexane-1-carboxamide] | 9.8 | 2400 | > 10000 | 415 | > 10000 | > 10000 | 9980 | 37.3 | 43.6 | 23.5 |  |  |
| Cn1cncc1-c1ccc2cnc(NC(=O)[C@H]3CCCO3)cc2c1 [Compound 537, (R)—N-(6-(1-Methyl-1H-imidazol-5-yl)isoquinolin-3-yl)tetrahydrofuran-2-carboxamide] | 8.9 | 451 | 8300 | 95 | 599 | 4800 | 1240 |  |  |  |  |  |
| O=C(Nc1cc2cc(-c3cncs3)ccc2cn1)C1CCN(C2COC2)CC1 [Compound 737, 1-(Oxetan-3-yl)-N-(6-(thiazol-5-yl)isoquinolin-3-yl)piperidine-4-carboxamide] | 1 | 865 | 4340 | 62 | 80 | 1290 | 1180 |  |  |  |  |  |
| Cn1cc(-c2ccc3cnc(NC(=O)CN4C5CCC4COC5)cc3c2)cn1 [Compound 347, 2-(3-Oxa-8-azabicyclo[3.2.1]octan-8-yl)-N-(6-(1-methyl-1H-pyrazol-4-yl)isoquinolin-3-yl)acetamide] | 10.4 |  | > 10000 | 165 | 5220 | 9440 | > 10000 |  | 48.5 |  | 4400 | 4.5 |
| Cn1cc(-c2ccc3cnc(NC(=O)CN4C5CCC4CC5)cc3c2)cn1 [Compound 292, 2-(7-Azabicyclo[2.2.1]heptan-7-yl)-N-(6-(1-methyl-1H-pyrazol-4-yl)isoquinolin-3-yl)acetamide] | 7.8 |  | 2820 | 173 | 2220 | 3380 | 1120 |  |  |  | 1350 |  |
| Cn1cc(-c2cc(F)c3cnc(NC(=O)C4CCNCC4)cc3c2)cn1 [Compound 366, N-(8-Fluoro-6-(1-methyl-1H-pyrazol-4-yl)isoquinolin-3-yl)piperidine-4-carboxamide] | 10.6 | 1100 | 910 | 116 | 173 | 334 | 1120 |  |  |  |  |  |
| Cc1ncc(-c2ccc3cnc(NC(=O)CN4CCCC4)cc3c2)s1 [Compound 993, N-(6-(2-Methylthiazol-5-yl)isoquinolin-3-yl)-2-(pyrrolidin-1-yl)acetamide] | 14.7 | 702 | 6580 | 87 | 1490 | 7970 | 8840 |  |  |  |  |  |
| Cn1cc(-c2ccc3cnc(NC(=O)C4CCN(C5COC5)CC4)cc3c2)cn1 [Compound 86, N-(6-(1-methyl-1H-pyrazol-4-yl)isoquinolin-3-yl)-1-(oxetan-3-yl)piperidine-4-carboxamide] | 2.5 | 682 | > 10000 | 48 | > 10000 | 4000 | 1770 | 14.6 |  |  |  |  |
| CN1CCN(C[C@H]2CC[C@H](C(=O)Nc3cc4cc(-c5cnn(C)c5)ccc4cn3)CC2)CC1 [Compound 14, trans-N-(6-(1-Methyl-1H-pyrazol-4-yl)isoquinolin-3-yl)-4-((4-methylpiperazin-1-yl)methyl)cyclohexane-1-carboxamide] | 1.5 | 408 | 898 | 59 | 35 | 354 | 643 |  |  |  |  |  |
| Cc1ncc(-c2ccc3cnc(NC(=O)CN4CCOCC4)cc3c2)s1 [Compound 994, N-(6-(2-Methylthiazol-5-yl)isoquinolin-3-yl)-2-morpholinoacetamide] | 12.9 | 1900 | > 10000 | 110 | 567 | 7900 | > 10000 |  | 36.8 |  |  | 31.8 |
| Cn1cc(-c2ccc3cnc(NC(=O)CN4CCCCC4)cc3c2)nn1 [Compound 276, N-(6-(1-methyl-1H-1,2,3-triazol-4-yl)isoquinolin-3-yl)-2-(piperidin-1-yl) acetamide] | 5.1 | 150 | > 10000 | 6 | 336 | 5180 | 2920 |  | 29.6 |  |  |  |
| CN(C)[C@H]1CC[C@H](C(=O)Nc2cc3cc(-c4cncs4)ccc3cn2)CC1 [Compound 707, trans-4-(Dimethylamino)-N-(6-(thiazol-5-yl)isoquinolin-3-yl)cyclohexane-1-carboxamide] | 0.9 | 449 | 947 | 46 | 4240 | 472 | 446 |  |  |  |  |  |
| Cn1cc(-c2ccc3cnc(NC(=O)[C@H]4CC[C@H](N(C)C)CC4)cc3c2)nn1 [Compound 443, trans-4-(Dimethylamino)-N-(6-(1-methyl-1H-1,2,3-triazol-4-yl)isoquinolin-3-yl)cyclohexane-1-carboxamide] | 2.2 | 289 | 1680 | 13 | 371 | 397 | 3290 |  |  |  |  |  |
| [2H]C([2H])([2H])n1cc(-c2ccc3cnc(NC(=O)[C@H](C)N4CCCC4)cc3c2)cn1 [Compound 971, (S)—N-(6-(1-(methyl-d3)-1H-pyrazol-4-yl)isoquinolin-3-yl)-2-(pyrrolidin-1-yl)propanamide] | 34.2 | 191 | 1200 | 34 | 866 | 720 | 1220 |  |  |  |  |  |
| O=C(Nc1cc2cc(-c3cnc4n3CCNC4)ccc2cn1)C1CCN(C(=O)c2ccccc2)CC1 [Compound 991, 1-Benzoyl-N-(6-(5,6,7,8-tetrahydroimidazo[1,2-a]pyrazin-3-yl)isoquinolin-3-yl)piperidine-4-carboxamide] | 3.3 | 10000 | 3960 | 29 | 2680 | 1700 | 3240 |  |  |  |  |  |
| Cn1cc(-c2ccc3cnc(NC(=O)C4CC4)c(Cl)c3c2)cn1 [Compound 364, N-(4-Chloro-6-(1-methyl-1H-pyrazol-4-yl)isoquinolin-3-yl) cyclopropanecarboxamide] | 840 | > 10000 | 5600 | 3120 | > 10000 | > 10000 | > 10000 | 15 |  | 24.1 |  | 5.8 |
